Assay results from the supplement of paper PMC4954754.
Values joined by “and” are separate entries in the source; they are usually repeats but may differ in a detail not shown here. Equal entries are not always repeated. ± gives the uncertainty stated by the source.

Key:
Settings in all cases: 18 h
HEK293T-Rex ERSE-FLuc [1] = assay: EC50 for ERSE-FLuc reporter activation
Method: (§1)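 Dose-response of hit compounds in HEK293T-Rex cells stably expressing ERSE-FLuc or XBP1-RLuc reporters, 18 hr treatment, 1536-well; luminescence normalised to 500 nM thapsigargin (100%) and DMSO (0%), fitted to give EC50 (M) and maximal activation; '>' marks EC50 above the top tested dose (~17 µM).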

HEK293T-Rex XBP1-RLuc [2] = assay: maximal XBP1-RLuc activation from dose-response fit, relative to thapsigargin (% of thapsigargin); higher = stronger activation
Method: as §1

HEK293T-Rex XBP1-RLuc [3] = assay: EC50 for XBP1-RLuc reporter activation
Method: as §1

HEK293T-Rex ERSE-FLuc [4] = assay: maximal ERSE-FLuc activation from dose-response fit, relative to thapsigargin (% of thapsigargin); higher = stronger activation
Method: as §1

| SMILES | EC50 for ERSE-FLuc reporter activation (HEK293T-Rex ERSE-FLuc [1]) | maximal XBP1-RLuc activation (HEK293T-Rex XBP1-RLuc [2]) | EC50 for XBP1-RLuc reporter activation (HEK293T-Rex XBP1-RLuc [3]) [µM] | maximal ERSE-FLuc activation (HEK293T-Rex ERSE-FLuc [4]) |
| --- | --- | --- | --- | --- |
| CC(C)c1ccc(/C=N\NC(=O)c2ccccc2)cc1 | > 16.9 µM | 17.7 ± 5.7 | > 16.9 | 19.3 ± 9.1 |
| CCCNC(=O)c1cc(-c2cccs2)on1 | 7.59 µM | 9.95 ± 1.4 | > 16.9 | 92.7 ± 11 |
| COc1ccc(-c2nn(-c3ccccc3)cc2/C=C/C(=O)O)cc1[N+](=O)[O-] | > 18.5 µM | 6.98 ± 2.8 | > 18.5 | 20.8 ± 4.1 |
| O=C(Nc1ccccc1O)c1ccc(C(=O)c2ccccc2)cc1 | 7.47 µM | 15.1 ± 5.4 | > 16.8 | 103 ± 3.3 |
| O=C(CCCCCCC(=O)Nc1ccccc1)NO | 6.58 µM | 3.17 ± 2.9 | > 16.9 | 132 ± 25 |
| CCOc1cccc(/C=C2\NC(=S)N(C)C2=O)c1O | > 16.9 µM | 0.0882 ± 1.7 | > 16.9 | 6.21 ± 2 |
| COCCNC(=O)c1cc(-c2cccs2)on1 | 15.5 µM | 9.6 ± 3.2 | > 16.9 | 54.1 ± 14 |
| Oc1ccc(-c2csc(-c3ccccc3)n2)cc1O | 5.39 µM | 65.9 ± 7.2 | 11.3 | 65.2 ± 8.8 |
| NN1C(=O)/C(=C/c2ccc(O)c(O)c2)SC1=S | 11.7 µM | 33.2 ± 4.3 | > 16.9 | 53.7 ± 2.2 |
| O=C1NC(=Nc2ccc(F)cc2)S/C1=C\c1ccc(O)c(O)c1 | 6.92 µM | 55.3 ± 2.5 | 12.4 | 85.9 ± 7.7 |
| O=C(Nc1ccc2nc(NC(=O)C3CCCCC3)sc2c1)C1CCCCC1 | > 10.2 µM | 5.73 ± 2.7 | > 10.2 | 13.9 ± 2.4 |
| Nc1nc(Nc2ccc(Cl)cc2)nc2ccccc12 | 9.57 µM | 56.4 ± 4.6 | 8.74 | 103 ± 24 |
| O=C(Nc1ccc(O)cc1)c1ccc2ccccc2c1 | > 16.9 µM | 16.2 ± 1.5 | > 16.9 | 31.4 ± 2.5 |
| CC(=O)Nc1ccc2nc(-c3ccc(OC(C)=O)cc3)sc2c1 | > 16.9 µM | 67 ± 2.2 | 11.3 | 15.7 ± 1.8 |
| O=C(N/N=C/c1ccc(Cl)cc1Cl)c1ccc(O)c(O)c1 | > 16.9 µM | 47 ± 2.7 | > 16.9 | 32.6 ± 8 |
| O=C(N/N=C/c1ccc(O)c(O)c1)c1ccc(Br)cc1 | 16 µM | 50.1 ± 4.6 | 16.8 | 51.2 ± 4.4 |
| C(=C\c1ccccc1)/C=N/Nc1nc2ccccc2[nH]1 | > 18 µM | 22.2 ± 2 | > 18 | 25.5 ± 3.7 |
| COc1ccc(Nc2nccn3c(-c4ccsc4)cnc23)cn1 | > 16.9 µM | 8.52 ± 2.1 | > 16.9 | 23.1 ± 0.89 |
| C=CCNC(=O)c1cc(-c2ccccc2)on1 | 7.45 µM | 10.7 ± 4.1 | > 16.9 | 99.6 ± 17 |

| SMILES | EC50 for ERSE-FLuc reporter activation (HEK293T-Rex ERSE-FLuc [1]) | maximal XBP1-RLuc activation (HEK293T-Rex XBP1-RLuc [2]) | EC50 for XBP1-RLuc reporter activation (HEK293T-Rex XBP1-RLuc [3]) [µM] | maximal ERSE-FLuc activation (HEK293T-Rex ERSE-FLuc [4]) |
| --- | --- | --- | --- | --- |
| Cc1cc(C)nc(Nc2nc(-c3ccc(O)c(O)c3)cs2)n1 | > 16.9 µM | 59.1 ± 1.4 | 14.1 | 39.7 ± 7.3 |
| O=C(/C=C/c1ccco1)Nc1ccc(Br)cc1Cl | > 16.9 µM | 4.5 ± 6.9 | > 16.9 | 23.5 ± 2.5 |
| Cc1ccc(O)c(N/C=C/C(=O)c2cccs2)c1 | 5.29 µM | 56.5 ± 2.8 | 10 | 225 ± 15 |
| COc1ccccc1-c1cc(C(=O)Nc2cc(C)ccc2O)no1 | > 16.9 µM | 18 ± 2.5 | > 16.9 | 25.7 ± 7.9 |
| O=c1cc(-c2ccc(O)c(O)c2)oc2cc(O)cc(O)c12 | 14.1 µM and 7.57 µM | 36.6 and 29 | > 16.9 | 80.9 and 67.8 |
| Cc1ccc(O)c(N=CC2=C(O)c3ccccc3C2=O)c1 | 3.75 µM | 35.5 ± 4.2 | > 16.9 | 74.8 ± 16 |
| COc1ccc(C2=Nn3c(nnc3-c3ccc(OC)cc3)SC2)cc1 | > 16.9 µM | 16 ± 2.4 | > 16.9 | 17 ± 5.2 |
| COc1ccccc1-c1nnc(Nc2nc3c(OC)cccc3s2)o1 | > 16.9 µM | 12.5 ± 1 | > 16.9 | 32.7 ± 3 |
| O=[N+]([O-])c1ccc(N/N=C/c2ccccc2O)cc1 | > 16.9 µM | 68.9 ± 7.5 | 13 | 44.5 ± 7.8 |
| COc1ccc(/C(C)=N/OC/C(O)=C(\C#N)c2nc3ccccc3[nH]2)cc1OC | > 17.2 µM | 3.33 ± 0.88 | > 17.2 | 5.39 ± 2.3 |
| CCn1c(/C(C#N)=C/c2ccc(OC)cc2)nc2ccccc21 | > 19.4 µM | 5.17 ± 3 | > 19.4 | 30.6 ± 6.3 |
| COc1ccc2[nH]c3c(N4CCCCC4)ncnc3c2c1 | > 17.1 µM | 9.73 ± 1.4 | > 17.1 | 27.4 ± 2.9 |
| Cc1ccc(O)c(NC(=O)CCc2ccccc2)c1 | 4.16 µM | 26.1 ± 0.67 | > 16.9 | 107 ± 12 |
| CCOc1cc(C2C(C(=O)OC3CCCCC3)=C(C)NC3=C2C(=O)CC(c2ccc(OC)cc2)C3)cc(Br)c1O (stereo not drawn) | 3.95 µM | 88.6 ± 10 | 5.3 | 70.43 ± 0.082 |
| N#Cc1c(NC(=O)c2ccc3ncsc3c2)sc2c1CCC2 | > 16.6 µM | 4.53 ± 1.1 | > 16.6 | 22.2 ± 2.5 |
| O=C(N/N=C\C(Br)=C\c1ccccc1)c1n[nH]c2c1CCCC2 | > 16.9 µM | 9.49 ± 5.7 | > 16.9 | 17.2 ± 4.7 |
| CC(C)NC(=O)c1cc(-c2ccc(O)cc2)on1 | > 16.9 µM | 0.798 ± 0.58 | > 16.9 | 1.46 ± 1 |
| CN(C)c1ccc(C2C(C#N)=C(N)Oc3c2sc2ccccc32)cc1[N+](=O)[O-] (stereo not drawn) | > 17.2 µM | 4.37 ± 1 | > 17.2 | 15.8 ± 4.9 |
